These results are taken from ChEMBL document CHEMBL1201862, “PubChem BioAssay data set” (2004).

Molecules are shown by their SMILES.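 Interpolation was linear, between the two tested concentrations surrounding the appropriate level; five concentrations were tested over 48 hours in 96-well plates. GI50 = concentration required for 50% inhibition of growth.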 Calls of active or inactive are those of the source. Rule as the data show it: active = GI50 up to about 1.1 µM and inactive = higher. Bounds are passed on as bounds.

As usually defined, the GI50 is the concentration at which growth is held to half of that of the control.

Some test systems named below: Malme-3M; ACHN; HL-60; SNB-19; PC-3; SW-620; NCI/ADR-RES; CAKI-1; MDA-MB-231; SK-MEL-5; K562; Hs-578T; LOX IMVI; HOP-92; SK-MEL-2; SF-268; SN12C; RPMI-8226; BT-549; SF-539.
Holding throughout (assay): DTP human tumour cell line panel, 48 h

Regarding `NC(Cc1ccccc1)P(=O)(O)O` (stereo not given), the GI50 in the assay with Malme-3M, in the assay on ACHN, with HL-60, in the assay with SNB-19, with PC-3 and in the assay on SW-620 was > 100 µM (inactive) each time. In addition, the GI50 in the assay with NCI/ADR-RES, in the assay on CAKI-1, in the assay on MDA-MB-231, in the assay on SK-MEL-5, in the assay on K562 and in the assay on Hs-578T was > 100 µM (inactive) each time. Further, the GI50 with LOX IMVI, in the assay with HOP-92, in the assay with SK-MEL-2, with SF-268, in the assay with SN12C and in the assay on RPMI-8226 was > 100 µM (inactive) each time. For the same compound, in the assay on BT-549, the GI50 is > 100 µM (inactive).
In the case of `CCCCn1c(C)c(C(=O)OCC)s/c1=N/Nc1nc2ccccc2nc1-c1ccccc1`, the GI50 in the assay with ACHN was 78.3 µM (inactive); in the assay on HL-60, 17.9 µM (inactive); in the assay with SNB-19, 40.6 µM (inactive); in the assay with PC-3, 30.9 µM (inactive); in the assay with SW-620, > 100 µM (inactive); in the assay with NCI/ADR-RES, > 100 µM (inactive). In addition, the GI50 with CAKI-1 is > 100 µM (inactive); in the assay with MDA-MB-231, 39.3 µM (inactive); in the assay on SK-MEL-5, 46.8 µM (inactive); in the assay on K562 it was > 100 µM (inactive); in the assay on Hs-578T, 26.2 µM (inactive); in the assay on LOX IMVI, > 100 µM (inactive). Further, the GI50 with HOP-92 was 44 µM (inactive); in the assay with SK-MEL-2, > 100 µM (inactive); with SN12C it was > 100 µM (inactive); with SF-539, > 100 µM (inactive); in the assay on RPMI-8226 it was 86.3 µM (inactive); in the assay with BT-549, > 100 µM (inactive).
Consider `O=S(=O)(Nc1nc2ccccc2nc1Nc1cccc2ccccc12)c1ccccc1`, for which the GI50 in the assay with Malme-3M is 4.48 µM (inactive); in the assay on ACHN, 8 µM (inactive); in the assay with SNB-19, 20.1 µM (inactive); with PC-3 it was 6.46 µM (inactive); in the assay with SW-620 it was 25.8 µM (inactive); with NCI/ADR-RES it was 13.6 µM (inactive). For the same compound, the GI50 in the assay on CAKI-1 is 31.8 µM (inactive); with MDA-MB-231, 13.6 µM (inactive); in the assay with SK-MEL-5, 10.7 µM (inactive); in the assay with K562, > 100 µM (inactive); in the assay with Hs-578T it was 21.1 µM (inactive); in the assay on LOX IMVI it was > 100 µM (inactive). Also, the GI50 in the assay with HOP-92 is 2.7 µM (inactive); with SK-MEL-2, 18.9 µM (inactive); in the assay on SF-268, 26.5 µM (inactive); with SN12C, > 100 µM (inactive); with SF-539 it was 44.9 µM (inactive); in the assay on RPMI-8226, 2.73 µM (inactive). In addition, the GI50 with BT-549 is 10.4 µM (inactive).
Consider `N/N=C1\C(OC(=O)Nc2ccccc2)=Nc2ccccc21`, for which the GI50 in the assay on Malme-3M is 13.2 µM (inactive); in the assay with ACHN, 15.1 µM (inactive); with SNB-19, 26.8 µM (inactive); in the assay on PC-3, 15.4 µM (inactive); in the assay on SW-620 it was 31.9 µM (inactive); in the assay on NCI/ADR-RES it was 30.3 µM (inactive). The GI50 is 14.9 µM (inactive) with CAKI-1; 18.6 µM (inactive) with MDA-MB-231; 14.2 µM (inactive) in the assay with SK-MEL-5; 40.3 µM (inactive) with K562; 36.2 µM (inactive) in the assay with Hs-578T; 14.5 µM (inactive) in the assay with LOX IMVI. For the same compound, the GI50 with HOP-92 is 15.2 µM (inactive); in the assay on SK-MEL-2 it was 19.7 µM (inactive); in the assay on SF-268 it was 36.1 µM (inactive); in the assay with SN12C, 19.2 µM (inactive); with SF-539, 15.6 µM (inactive); with RPMI-8226 it was 10.3 µM (inactive). The GI50 with BT-549 is 11.7 µM (inactive).
On to `OCCCCn1cc(Cn2ncc3c(SCc4ccccc4)ncnc32)nn1`, for which the GI50 with Malme-3M is > 100 µM (inactive); in the assay with ACHN, 67.6 µM (inactive); with SNB-19 it was 65.5 µM (inactive); in the assay with PC-3, 61.2 µM (inactive); in the assay with SW-620 it was 26.7 µM (inactive); in the assay with NCI/ADR-RES, 21.6 µM (inactive). Further, the GI50 with CAKI-1 was 31 µM (inactive); in the assay on MDA-MB-231, 75.7 µM (inactive); in the assay on SK-MEL-5, 21.7 µM (inactive); with K562, 38.8 µM (inactive); in the assay with Hs-578T, 26 µM (inactive); in the assay on LOX IMVI, 72.4 µM (inactive). The GI50 with HOP-92 is > 100 µM (inactive); in the assay on SK-MEL-2, 76.7 µM (inactive); with SF-268, 63.1 µM (inactive); with SN12C, 63 µM (inactive); in the assay on SF-539, 43.2 µM (inactive); in the assay with RPMI-8226, 40.9 µM (inactive). Also, the GI50 in the assay on BT-549 is 34.7 µM (inactive).
On to `CC1=CC(=O)/C(=C/n2c(=S)[nH]c3ccccc32)C(=O)O1`, for which the GI50 was > 100 µM (inactive) in the assay with ACHN; < 0.01 µM (active) in the assay with HL-60; > 100 µM (inactive) in the assay on SNB-19; > 100 µM (inactive) in the assay with PC-3; > 100 µM (inactive) in the assay on SW-620; > 100 µM (inactive) in the assay on NCI/ADR-RES. Besides, the GI50 is > 100 µM (inactive) in the assay with CAKI-1; > 100 µM (inactive) with MDA-MB-231; > 100 µM (inactive) with K562; 72.8 µM (inactive) in the assay with Hs-578T; > 100 µM (inactive) in the assay with LOX IMVI; > 100 µM (inactive) in the assay on HOP-92. In addition, the GI50 in the assay with SK-MEL-2, in the assay on SF-268, in the assay with SN12C, with SF-539, with RPMI-8226 and in the assay with BT-549 was > 100 µM (inactive) throughout.
As for `COc1ccc(NC(C)=O)c(C(O)CCNC(C)=O)c1` (stereo not given), the GI50 with ACHN, in the assay on HL-60, in the assay with SNB-19, in the assay with PC-3, in the assay with SW-620 and with NCI/ADR-RES was > 100 µM (inactive) each time. Besides, the GI50 with CAKI-1, with MDA-MB-231, in the assay with SK-MEL-5, in the assay on Hs-578T, in the assay on LOX IMVI and in the assay on HOP-92 was > 100 µM (inactive) each time. Moreover, the GI50 with SK-MEL-2, in the assay on SF-268, with SN12C, in the assay with SF-539, with RPMI-8226 and in the assay on BT-549 was > 100 µM (inactive) each time.
With `COc1cccc2c1C(=O)c1c(O)c3c(c(O)c1C2=O)CC(O)(C(O)CO)CC3OC1CC2C(OC3COCC(C#N)N32)C(C)O1` (stereo not given), the GI50 in the assay with Malme-3M, in the assay with ACHN, in the assay with HL-60, with SNB-19, in the assay with PC-3 and in the assay with SW-620 was < 0.01 µM (active) each time. Besides, the 50% growth inhibitory concentration (GI50) in the assay with NCI/ADR-RES, in the assay with MDA-MB-231, in the assay on SK-MEL-5, in the assay with K562, in the assay with Hs-578T and in the assay on LOX IMVI was < 0.01 µM (active) in each case. For the same compound, the GI50 in the assay on HOP-92, in the assay on SK-MEL-2, with SF-268, in the assay on SN12C, in the assay on SF-539 and in the assay with BT-549 was < 0.01 µM (active) in each case.
Regarding `C=C(C)C1CCC2(CO)C(O)CC3(C)C(CCC4C5(C)CCC(O)C(C)(C)C5CCC43C)C12` (stereo not given), the GI50 with Malme-3M is 13.6 µM (inactive); with ACHN, 3.57 µM (inactive); in the assay on HL-60, 25.3 µM (inactive); in the assay with SNB-19, 5.36 µM (inactive); with PC-3, 6.01 µM (inactive); in the assay on SW-620, 21.8 µM (inactive). The GI50 in the assay on NCI/ADR-RES is 15.3 µM (inactive); with CAKI-1, 3.73 µM (inactive); with MDA-MB-231 it was 12.7 µM (inactive); in the assay on SK-MEL-5, 5.14 µM (inactive); in the assay with K562 it was 9.77 µM (inactive); with Hs-578T it was 7.76 µM (inactive). Moreover, the GI50 in the assay on LOX IMVI was 9.98 µM (inactive); with HOP-92 it was 11.4 µM (inactive); in the assay with SK-MEL-2, 10.3 µM (inactive); in the assay with SF-268, 8.36 µM (inactive); with SN12C, 16.5 µM (inactive); with SF-539 it was 12.7 µM (inactive). Besides, the GI50 with BT-549 is 11.6 µM (inactive).
On to `NC(=O)NC(=O)c1cccc(NC(=O)CI)c1`, for which the GI50 in the assay on ACHN was < 0.017 µM (active); in the assay on HL-60, < 0.01 µM (active); with SNB-19, 0.646 µM (active); in the assay with PC-3, 0.0316 µM (active); in the assay on SW-620, < 0.01 µM (active); in the assay on NCI/ADR-RES it was 0.039 µM (active). Further, the GI50 in the assay with CAKI-1 was < 0.01 µM (active); in the assay with MDA-MB-231, 0.0622 µM (active); in the assay on SK-MEL-5, < 0.0105 µM (active); in the assay with K562, < 0.01 µM (active); with Hs-578T, 0.0398 µM (active); in the assay with LOX IMVI, < 0.0132 µM (active). Besides, the GI50 in the assay with HOP-92 was < 0.01 µM (active); with SK-MEL-2, 0.0361 µM (active); in the assay on SF-268, 0.0254 µM (active); in the assay with SN12C, < 0.0197 µM (active); in the assay with SF-539, < 0.0229 µM (active); in the assay on RPMI-8226, < 0.0128 µM (active). For the same compound, the GI50 in the assay on BT-549 was 0.0473 µM (active).
As for `NCCO/C=C/C(N)C(=O)O` (stereo not given) [AMINOETHOXYVINYLGLYCINE], the GI50 in the assay on ACHN, in the assay with HL-60, with SNB-19, in the assay with PC-3, in the assay on SW-620 and in the assay with NCI/ADR-RES was > 100 µM (inactive) in each case. Besides, the GI50 in the assay on CAKI-1, in the assay with MDA-MB-231, in the assay on SK-MEL-5, in the assay with K562, with Hs-578T and in the assay on LOX IMVI was > 100 µM (inactive) in each case. For the same compound, the GI50 with HOP-92, in the assay with SK-MEL-2, in the assay with SF-268, with SN12C, with SF-539 and with RPMI-8226 was > 100 µM (inactive) in each case. Moreover, the GI50 in the assay with BT-549 was > 100 µM (inactive).
